The source of these data is ChEMBL document CHEMBL3797081, “Application of virtual screening to the discovery of novel nicotinamide phosphoribosyltransferase (NAMPT) inhibitors with potential for the treatment of cancer and axonopathies” (Bioorg Med Chem Lett, 2016).

Active and inactive are the calls of the source. The calls are words filed in the database; no cut-off is given here.

The target in one data set is CYP2D6 (Homo sapiens, UniProt P10635). As to the kind of experiment: Inhibition of CYP2D6 (unknown origin) at 3 uM relative to control. The data set is classed as ADME.
CYP2D6, sequence (P10635 whole entry): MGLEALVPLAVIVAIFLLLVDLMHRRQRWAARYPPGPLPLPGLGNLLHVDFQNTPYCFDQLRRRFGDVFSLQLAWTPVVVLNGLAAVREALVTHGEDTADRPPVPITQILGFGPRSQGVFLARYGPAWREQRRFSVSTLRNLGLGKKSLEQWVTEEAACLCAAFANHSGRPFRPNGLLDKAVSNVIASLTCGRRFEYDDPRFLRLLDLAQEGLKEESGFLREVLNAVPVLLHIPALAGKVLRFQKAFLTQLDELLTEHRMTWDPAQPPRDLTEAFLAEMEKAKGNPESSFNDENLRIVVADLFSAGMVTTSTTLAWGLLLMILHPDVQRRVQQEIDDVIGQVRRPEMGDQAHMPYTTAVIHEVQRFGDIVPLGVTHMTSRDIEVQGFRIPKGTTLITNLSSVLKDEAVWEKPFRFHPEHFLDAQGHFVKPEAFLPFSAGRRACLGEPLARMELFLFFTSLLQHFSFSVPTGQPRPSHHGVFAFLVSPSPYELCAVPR
For data set [1], the target named is Nicotinamide phosphoribosyltransferase (Homo sapiens, UniProt P43490). As to the kind of experiment: Inhibition of human NAMPT using NAM as substrate assessed as NMN formation preincubated for 5 mins followed by substrate addition measured after 15 mins by fluorometric assay.
Nicotinamide phosphoribosyltransferase, sequence (P43490 whole entry): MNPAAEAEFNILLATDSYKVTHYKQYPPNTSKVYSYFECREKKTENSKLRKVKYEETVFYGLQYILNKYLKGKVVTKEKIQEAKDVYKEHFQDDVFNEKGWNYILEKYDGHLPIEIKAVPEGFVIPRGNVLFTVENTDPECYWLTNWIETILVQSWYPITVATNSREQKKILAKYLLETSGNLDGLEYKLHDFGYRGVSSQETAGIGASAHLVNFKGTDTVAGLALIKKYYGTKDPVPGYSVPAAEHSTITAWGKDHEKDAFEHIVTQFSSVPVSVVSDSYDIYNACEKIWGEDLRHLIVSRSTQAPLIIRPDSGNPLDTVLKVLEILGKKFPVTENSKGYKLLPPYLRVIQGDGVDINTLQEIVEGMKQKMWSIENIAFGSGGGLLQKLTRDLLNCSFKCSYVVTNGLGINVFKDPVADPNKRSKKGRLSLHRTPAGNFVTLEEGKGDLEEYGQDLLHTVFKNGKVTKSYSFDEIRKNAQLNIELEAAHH
The nature of data set [2]: Plasma protein binding in human. The conditions noted are these: read-out: PPB (converted). The data set is classed as ADME, cell-free.
Data set [3] can be described thus: Metabolic stability in human liver microsomes assessed as parent compound remaining at 5 uM measured at 30 mins in presence of NADPH. The data set is classed as ADME. Conditions: read-out: Stability. (In general: Microsomes from liver hold many membrane-bound enzymes, among them those of drug oxidation.)
Data set [4] can be described thus: Metabolic stability in mouse liver microsomes assessed as parent compound remaining at 5 uM measured at 30 mins in absence of NADPH. Conditions: read-out: Stability. The data set is classed as ADME.
The target in the next data set is T1, CYP1A2 (Homo sapiens, UniProt P05177).
T1 sequence (P05177 whole entry): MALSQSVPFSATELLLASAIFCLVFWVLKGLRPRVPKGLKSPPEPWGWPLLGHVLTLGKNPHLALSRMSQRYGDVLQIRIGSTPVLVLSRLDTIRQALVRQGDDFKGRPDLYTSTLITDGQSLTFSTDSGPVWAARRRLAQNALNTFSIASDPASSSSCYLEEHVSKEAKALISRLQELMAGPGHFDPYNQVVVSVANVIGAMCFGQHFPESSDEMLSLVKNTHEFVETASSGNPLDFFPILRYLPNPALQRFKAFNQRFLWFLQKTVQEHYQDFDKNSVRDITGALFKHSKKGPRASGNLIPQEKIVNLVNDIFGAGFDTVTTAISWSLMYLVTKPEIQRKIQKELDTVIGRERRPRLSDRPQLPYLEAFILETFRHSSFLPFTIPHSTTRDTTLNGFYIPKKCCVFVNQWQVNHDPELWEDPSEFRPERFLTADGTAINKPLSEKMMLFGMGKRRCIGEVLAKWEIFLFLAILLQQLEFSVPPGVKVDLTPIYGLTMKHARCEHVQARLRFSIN
The experiment in a line: Inhibition of CYP1A2 (unknown origin) at 3 uM relative to control. The data set is classed as ADME.

The next data set concerns the target CYP2C9 (Homo sapiens, UniProt P11712). As to the kind of experiment: Inhibition of CYP2C9 (unknown origin) at 3 uM relative to control. The data set is classed as ADME.
The target of the next data set is CYP3A4 (Homo sapiens, UniProt P08684). As to the kind of experiment: Inhibition of CYP3A4 (unknown origin) at 3 uM relative to control. The data set is classed as ADME.
CYP3A4, sequence (P08684 whole entry): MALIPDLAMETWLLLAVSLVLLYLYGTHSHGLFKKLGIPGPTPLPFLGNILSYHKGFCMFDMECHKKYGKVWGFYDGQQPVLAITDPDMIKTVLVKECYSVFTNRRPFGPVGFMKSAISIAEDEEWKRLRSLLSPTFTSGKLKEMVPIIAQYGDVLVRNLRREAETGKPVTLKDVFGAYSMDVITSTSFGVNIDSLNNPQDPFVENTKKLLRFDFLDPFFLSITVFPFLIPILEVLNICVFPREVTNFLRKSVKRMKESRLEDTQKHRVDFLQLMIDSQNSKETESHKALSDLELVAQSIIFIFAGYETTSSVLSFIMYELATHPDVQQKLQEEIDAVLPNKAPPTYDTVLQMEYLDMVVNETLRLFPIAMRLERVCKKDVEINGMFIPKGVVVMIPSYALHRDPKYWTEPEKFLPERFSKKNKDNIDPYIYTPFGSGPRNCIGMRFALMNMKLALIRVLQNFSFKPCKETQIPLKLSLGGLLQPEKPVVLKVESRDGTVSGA
A short description of data set [5]: Metabolic stability in mouse liver microsomes assessed as parent compound remaining at 5 uM measured at 30 mins in presence of NADPH. The data set is classed as ADME. Conditions: read-out: Stability.
Data set [6] in a line: Permeability across human Caco2 cells assessed as drug recovery. The data set is classed as ADME, cell-based. Conditions: Caco-2, read-out: Drug recovery. In general terms: Caco-2 cells form a polarised layer with tight junctions and transporters.
Data set [7] can be described thus: Metabolic stability in human liver microsomes assessed as parent compound remaining at 5 uM measured at 30 mins in absence of NADPH. The data set is classed as ADME. Conditions: read-out: Stability.
Data set [8] has as its target Nicotinamide phosphoribosyltransferase (Mus musculus) (UniProt Q99KQ4). The experiment in a line: Inhibition of NAMPT in neonatal mouse superior cervical ganglion explant assessed as delay in degeneration of injured axons at 1 uM treated <10 mins prior to axon transection meaured at 8 hrs by phase contrast microscopy. The data set is classed as tissue-based.
Data set [9] has the same target. Conditions: Superior cervical ganglion, 100 nM.
Description: Inhibition of NAMPT in neonatal mouse superior cervical ganglion explant assessed as delay in degeneration of injured axons at 100 nM treated <10 mins prior to axon transection meaured at 8 to 24 hrs by phase contrast microscopy

Nicotinamide phosphoribosyltransferase (Mus musculus), sequence (Q99KQ4 whole entry, looked up): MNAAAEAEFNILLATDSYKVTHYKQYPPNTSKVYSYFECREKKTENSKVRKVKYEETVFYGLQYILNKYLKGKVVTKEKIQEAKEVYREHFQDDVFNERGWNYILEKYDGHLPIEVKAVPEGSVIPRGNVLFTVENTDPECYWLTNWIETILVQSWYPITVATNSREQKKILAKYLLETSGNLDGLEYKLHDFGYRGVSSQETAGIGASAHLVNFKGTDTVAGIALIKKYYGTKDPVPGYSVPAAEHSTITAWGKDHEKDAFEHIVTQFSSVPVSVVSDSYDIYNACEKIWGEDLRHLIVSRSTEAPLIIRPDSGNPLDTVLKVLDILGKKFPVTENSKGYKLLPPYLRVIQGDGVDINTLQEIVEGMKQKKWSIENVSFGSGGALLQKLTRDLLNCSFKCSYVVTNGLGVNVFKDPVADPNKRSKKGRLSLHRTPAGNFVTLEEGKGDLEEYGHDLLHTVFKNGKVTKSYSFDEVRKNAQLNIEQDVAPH
CYP2C9, sequence (P11712 whole entry): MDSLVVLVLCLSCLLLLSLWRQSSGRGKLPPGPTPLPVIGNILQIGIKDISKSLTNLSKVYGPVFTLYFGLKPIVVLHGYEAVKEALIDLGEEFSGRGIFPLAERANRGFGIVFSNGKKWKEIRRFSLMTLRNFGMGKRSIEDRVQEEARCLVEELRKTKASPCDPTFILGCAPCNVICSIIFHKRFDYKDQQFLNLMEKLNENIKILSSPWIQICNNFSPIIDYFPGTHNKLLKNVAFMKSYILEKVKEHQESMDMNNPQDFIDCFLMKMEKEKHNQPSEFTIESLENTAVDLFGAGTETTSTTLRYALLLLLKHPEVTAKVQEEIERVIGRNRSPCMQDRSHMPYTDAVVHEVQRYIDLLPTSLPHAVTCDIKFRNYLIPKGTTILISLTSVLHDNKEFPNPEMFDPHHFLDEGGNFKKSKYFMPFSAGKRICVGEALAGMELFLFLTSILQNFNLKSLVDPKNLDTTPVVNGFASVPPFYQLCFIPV

Broadly, the inhibition is how much of the control response was suppressed. In general, IC50 refers to the concentration that inhibits the measured activity by half. For the compound `CCCCc1ccc(NC(=O)C2CC2c2cccnc2)cc1` (stereo not drawn), the inhibition at 3 µM stood at 1% against CYP2D6, 22% against CYP1A2, 31% against CYP2C9 and 63% at CYP3A4. For the same compound, in data set [1], the IC50 was 41.8 nM. For the same compound, the fraction unbound in data set [2] is 0.008. Moreover, the remaining at 0.5 h, 5 µM in data set [3] is 7%; in [4] it was 87%; in data set [5], 43%; in data set [7] it was 96%. Also, the recovery in data set [6] is < 70%.

For `O=C(c1cc(-c2cccnc2)[nH]n1)N1CCN(C(c2ccccc2)c2ccccc2)CC1`, the inhibition at 3 µM was found to be 3% on CYP2D6, 23% on CYP1A2, 43% against CYP2C9 and 20% on CYP3A4. Moreover, the IC50 in data set [1] is 243 nM. Further, in data set [2], the fraction unbound was 0.004. In addition, the remaining at 0.5 h, 5 µM in [3] is 63%; in [4] it was 96%; in data set [5], 19%; in [7], 104%. In addition, the recovery in [6] is < 70%. Further, the inhibition result in data set [8] was “Active”.

Turning to `O=C(/C=C/c1cccnc1)NCCCCC1CCN(C(=O)c2ccccc2)CC1`, the inhibition entry in data set [9] is “Active”.

Consider `O=C(/C=C/c1cccnc1)N1CCN(Cc2ccc(OC(F)(F)F)cc2)CC1`, for which, in data set [1], the IC50 turned out to be 780 nM.

`O=C(COc1ccc(S(=O)(=O)Nc2ccc(Cl)cc2)cc1)NCc1cccnc1`: the 50% inhibitory concentration (IC50) in [1] came to 1900 nM.

As for `CC1(C)Cc2cccc(OCCNC(=O)/C=C/c3cccnc3)c2O1`, in [1], the IC50 came out at 940 nM.

With `O=C(NCCOc1ccc2ccccc2c1)NCc1cccnc1`, the IC50 in data set [1] is 5000 nM.

For the compound `O=C(/C=C/c1cccnc1)N1CCN(Cc2csc(-c3ccc(F)cc3)n2)CC1`, the IC50 in [1] stood at 3200 nM.

As to `O=C(c1cc(-c2cccnc2)n[nH]1)N1CCN(C(=O)c2cc3ccccc3[nH]2)CC1`, the half-maximal inhibitory concentration (IC50) in data set [1] is 3800 nM.

As for `O=C(/C=C/c1cccnc1)Nc1ccc(-c2nnc3n2CCCCC3)cc1`, the half-inhibitory concentration (IC50) in data set [1] was 670 nM.

As to `O=C(/C=C/c1cccnc1)Nc1ccc(C(=O)NCC(F)(F)F)cc1`, the concentration for half-maximal inhibition (IC50) in data set [1] was 220 nM.

On to `O=C(NCc1cccnc1)c1cc2n(n1)CCN(Cc1ccc(Cl)c(Cl)c1)C2=O`, for which, in data set [1], the IC50 worked out at 320 nM.
